Values quoted from earlier work as cited in US20100255105A1, “EXTENDED RELEASE PHARMACEUTICAL COMPOSITION COMPRISING METOPROLOL SUCCINATE” (ZAKLADY FARMACEUTYCZNE POLPHARMA S.A., priority 2009, published 2010).

Conditions: water at 37° C.

For `COCCc1ccc(OCC(O)CNC(C)C)cc1` (stereo not shown) [metoprolol succinate], the solubility in water is given as 276 mg/mL.
